Assays:
Assay in all cases: relative viability (nuclei count vs DMSO), 5 days (fraction); higher = more cells survive
Idelalisib + Trametinib = compound: CC[C@H](Nc1ncnc2[nH]cnc12)c1nc2cccc(F)c2c(=O)n1-c1ccccc1 [Idelalisib] + CC(=O)Nc1cccc(-n2c(=O)n(C3CC3)c(=O)c3c(Nc4ccc(I)cc4F)n(C)c(=O)c(C)c32)c1 [Trametinib] (partner 0.02 µM)
Procedure, shortened: (§1)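 Lung cancer cell lines were pin-tool dosed in 1536-well plates on the day after seeding, with either a lone drug or a fixed anchor-drug dose plus five library-drug doses (not always all listed) in √10 steps. Nuclei were counted on 4× images after 5 days. Relative viability is the ratio of treated-well to vehicle-well nuclei counts, with each value a median of duplicate plates.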

Idelalisib + Tozasertib = compound: CC[C@H](Nc1ncnc2[nH]cnc12)c1nc2cccc(F)c2c(=O)n1-c1ccccc1 [Idelalisib] + Cc1cc(Nc2cc(N3CCN(C)CC3)nc(Sc3ccc(NC(=O)C4CC4)cc3)n2)n[nH]1 [Tozasertib] (partner 0.1 µM)
Procedure, shortened: as §1

Idelalisib + Alpelisib = compound: CC[C@H](Nc1ncnc2[nH]cnc12)c1nc2cccc(F)c2c(=O)n1-c1ccccc1 [Idelalisib] + Cc1nc(NC(=O)N2CCC[C@H]2C(N)=O)sc1-c1ccnc(C(C)(C)C(F)(F)F)c1 [Alpelisib] (partner 2 µM)
Procedure, shortened: as §1

Pemetrexed + Vorinostat = compound: Nc1nc2[nH]cc(CCc3ccc(C(=O)N[C@@H](CCC(=O)O)C(=O)O)cc3)c2c(=O)[nH]1 [Pemetrexed] + O=C(CCCCCCC(=O)Nc1ccccc1)NO [Vorinostat] (partner 1 µM)
Procedure, shortened: as §1

Cell Line | relative viability (Idelalisib + Trametinib; first compound 0.04 µM) | relative viability (Idelalisib + Trametinib; first compound 0.1265 µM) | relative viability (Idelalisib + Trametinib; first compound 0.4 µM) | relative viability (Idelalisib + Trametinib; first compound 1.265 µM) | relative viability (Idelalisib + Trametinib; first compound 4 µM) | relative viability (Idelalisib + Tozasertib; first compound 0.04 µM) | relative viability (Idelalisib + Tozasertib; first compound 0.1265 µM) | relative viability (Idelalisib + Tozasertib; first compound 0.4 µM) | relative viability (Idelalisib + Tozasertib; first compound 1.265 µM) | relative viability (Idelalisib + Tozasertib; first compound 4 µM) | relative viability (Idelalisib + Alpelisib; first compound 0.04 µM) | relative viability (Idelalisib + Alpelisib; first compound 0.1265 µM) | relative viability (Idelalisib + Alpelisib; first compound 0.4 µM) | relative viability (Idelalisib + Alpelisib; first compound 1.265 µM) | relative viability (Idelalisib + Alpelisib; first compound 4 µM) | relative viability (Pemetrexed + Vorinostat; first compound 0.002 µM) | relative viability (Pemetrexed + Vorinostat; first compound 0.006325 µM) | relative viability (Pemetrexed + Vorinostat; first compound 0.02 µM) | relative viability (Pemetrexed + Vorinostat; first compound 0.06325 µM) | relative viability (Pemetrexed + Vorinostat; first compound 0.2 µM)
NCI-H1651 | 0.825 | 0.85 | 0.815 | 0.844 | 0.814 | 0.673 | 0.623 | 0.615 | 0.593 | 0.605 | 0.921 | 0.864 | 0.907 | 0.964 | 0.845 | 0.553 | 0.562 | 0.642 | 0.44 | 0.548
EBC-1 | – | – | – | – | – | – | – | – | – | – | 0.961 | 0.941 | 0.684 | 0.658 | 0.349 | – | – | – | – | –
COR-L 105 | 0.518 | 0.41 | 0.41 | 0.456 | 0.461 | 0.354 | 0.321 | 0.312 | 0.334 | 0.357 | 1.05 | 1.08 | 0.855 | 0.83 | 0.586 | 0.954 | 0.784 | 0.849 | 0.857 | 0.688
RERF-LC-KJ | 0.84 | 0.912 | 0.804 | 0.936 | 0.66 | 0.539 | 0.502 | 0.47 | 0.474 | 0.449 | 0.735 | 0.71 | 0.785 | 0.77 | 0.645 | 0.621 | 0.581 | 0.762 | 0.597 | 0.5
NCI-H1793 | 0.431 | 0.467 | – | 0.475 | 0.383 | 0.344 | 0.311 | 0.222 | 0.229 | 0.225 | 0.835 | 0.571 | 0.392 | 0.671 | 0.529 | 0.613 | 0.792 | 0.69 | 0.986 | 0.796
CAL-12T | 0.422 | 0.28 | 0.276 | 0.363 | 0.339 | 0.323 | 0.254 | 0.295 | 0.325 | 0.265 | 1.34 | 1.18 | 0.898 | 0.966 | 0.971 | 0.634 | 0.683 | 0.852 | 0.704 | 0.821
NCI-H1993 | 0.688 | 0.302 | 0.617 | 0.547 | 0.448 | 0.628 | 0.54 | 0.519 | 0.583 | 0.574 | 0.691 | 0.592 | 0.679 | 0.665 | 0.667 | 0.832 | 0.863 | 0.701 | 0.67 | 0.612
LXF-289 | 0.694 | 0.706 | 0.655 | 0.721 | 0.734 | 0.259 | 0.189 | 0.195 | 0.14 | 0.235 | 0.997 | 1.05 | 0.996 | 1.01 | 0.993 | 0.625 | 0.758 | 0.795 | 0.74 | 0.718
NCI-H1792 | 0.487 | 0.522 | 0.271 | 0.56 | 0.267 | – | – | – | – | – | 0.315 | 0.662 | 0.665 | 0.577 | 0.581 | – | – | – | – | –
LU99A | 0.6 | 0.539 | 0.546 | 0.542 | 0.502 | 0.271 | 0.292 | 0.278 | 0.306 | 0.318 | 0.665 | 0.479 | 0.36 | 0.554 | 0.45 | 0.488 | 0.464 | 0.495 | 0.466 | 0.385
SW 1573 | 0.688 | 0.468 | 0.477 | 0.506 | 0.383 | 0.168 | 0.181 | 0.163 | 0.201 | 0.142 | 0.822 | 0.612 | 0.711 | 0.729 | 0.633 | 0.697 | 0.541 | 1.04 | 0.747 | 0.653
COR-L23 | 0.603 | 0.639 | 0.538 | 0.62 | 0.578 | 0.196 | 0.195 | 0.207 | 0.225 | 0.162 | 0.698 | 0.769 | 0.634 | 0.69 | 0.763 | 0.474 | 0.398 | 0.424 | 0.186 | 0.136
A549 | – | – | – | – | – | – | – | – | – | – | 0.873 | 0.812 | 0.505 | 0.51 | 0.548 | – | – | – | – | –
ChaGo-K-1 | 0.945 | 0.907 | 0.865 | 0.906 | 0.913 | 0.244 | 0.227 | 0.197 | 0.212 | 0.187 | – | – | – | – | – | 0.721 | 0.735 | 0.751 | 0.293 | 0.233
NCI-H2342 | 0.804 | 0.851 | 0.779 | 0.753 | 0.658 | 0.44 | 0.556 | 0.44 | 0.455 | 0.397 | – | – | – | – | – | 0.824 | 0.831 | 0.749 | 0.773 | 0.843
NCI-H1648 | 0.418 | 0.482 | 0.423 | 0.433 | 0.397 | 0.489 | 0.373 | 0.412 | 0.425 | 0.217 | – | – | – | – | – | 0.397 | 0.138 | 0.399 | 0.465 | 0.551
ABC-1 | – | – | – | – | – | 0.146 | 0.154 | 0.186 | 0.219 | 0.196 | 0.956 | 1.22 | 1.08 | 1.13 | 0.807 | 1.07 | 1.68 | 1.18 | 1.33 | 1.1
NCI-H1563 | – | – | – | – | – | – | – | – | – | – | 0.839 | 1.03 | 0.807 | 0.825 | 0.669 | – | – | – | – | –
NCI-H522 | 0.76 | 0.646 | 0.668 | 0.727 | 0.731 | 0.578 | 0.569 | 0.508 | 0.571 | 0.489 | – | – | – | – | – | 0.801 | 0.871 | 1.09 | 0.797 | 0.927
NCI-H1623 | – | – | – | – | – | 0.393 | 0.429 | 0.443 | 0.431 | 0.388 | – | – | – | – | – | – | – | – | – | –
NCI-H1299 | – | – | – | – | – | – | – | – | – | – | 1.02 | 1.03 | 1.02 | 1.03 | 1.15 | – | – | – | – | –
Calu-6 | – | – | – | – | – | – | – | – | – | – | 0.954 | 1.03 | 0.909 | 0.99 | 0.892 | – | – | – | – | –

— the supplement of paper PMC10307832
